Usually IC50 stands for the concentration that inhibits the measured activity by half.

Counter-ions that a name gives are not always drawn. Like-named read-outs stand apart in the source and are kept apart here.

For one data set, the target named is Human Factor XIa (Homo sapiens (Human), UniProt P03951). In words: Factor XIa enzyme activity (chromogenic substrate S-2366). It is filed as biochemical. The following applies: read-out: In vitro FXIa inhibitory activity IC50. The procedure:
Inhibitory activities of compounds of the present invention against factor XIa, Xa, XIIa, IXa, VIIa, plasma kallikrein or thrombin were evaluated using appropriate purified proteases and synthetic substrates. The rate of hydrolysis of the chromogenic substrate by the relevant protease was continuously measured at 405 nm.
Inhibitory activity against each enzyme was calculated as % inhibition using the equation described below. % Inhibition=[[(rate without compound)−(rate with compound)](rate without compound)]×100%. Each half maximal inhibitory concentration (IC50) value was determined by plotting the concentration of compound of the invention against the % inhibition. (1-1) Factor XIa Enzyme Activity
Human Factor XIa (Haematologic Technologies Inc.) activity was measured at an enzyme concentration of 0.1 U/mL in 150 mM NaCl, 5 mM KCl, 1 mg/mL PEG6000, 50 mM HEPES-NaOH (pH7.4) with 300 μM S-2366 (pyroGlu-Pro-Arg-pNA, Chromogenix).

Data set [1] can be described thus: Rat oral administration test (plasma concentration via FXIa inhibitory activity). Format: in vivo. The following applies: fasted male Crj:CD(SD)IGS rats, single 3 mg/kg p.o., 20% wellsolve, read-out: rat plasma concentration after po administration Cmax at 3 mpk. The procedure:
Each compound of the present invention in a solution of 20% wellsolve (celeste) was given to fasted male Crj:CD(SD)IGS rats as a single 3 mg/kg, p.o. dose by gavage. Blood samples were drawn from jugular vein into syringes containing 3.2% sodium citrate (the volume ratio of blood to anticoagulant=9:1) after oral administration at 0.5, 1, 2, 4 and 6 hours. Plasma was harvested by centrifugation and stored at −20° C. until measurement of plasma concentration.
To measure plasma concentrations of the compounds of the present invention, plasma samples were deproteinized with acetonitrile, followed by evaporation of the acetonitrile to dryness. The residual was then re-dissolved with DMSO and its FXIa inhibitory activity was measured by enzyme assay described above. Plasma concentrations of each compound of the present invention were quantitated by generating a standard curve of known compound concentration in rat plasma.

The nature of data set [2]: Pharmacokinetic (PK) study of the compound which has an ester group(s) in rat. It is filed as in vivo. Particulars: plasma, po, fasted male Crj:CD(SD) rats, single 3 mg/kg p.o., analyte: administered ester compound, read-out: rat plasma concentration of ester compound after po administration Cmax at 3mpk. Here is the method:
Each compound of the present invention in a solution of 20% wellsolve (celeste) was given to fasted male Crj:CD(SD) rats as a single 3 mg/kg, p.o. dose by gavage. Blood samples were drawn from jugular vein into syringes treated with heparin-diisopropyl fluorophosphate mixture (500:1) at 0.5, 1, 3, 7 hours after oral administration. Plasma was obtained by centrifugation and stored at −20° C. until measurement of plasma concentration.
To measure plasma concentrations of the compounds of the present invention, plasma samples were deproteinized with acetonitrile, followed by evaporation of the acetonitrile to dryness. Then the sample was reconstituted in the mobile phase and analyzed by LC/MS/MS. An analytical column (Shim-pack XR-ODS II, 2.0 mm×75 mm, 2.2 μm) and mobile phase (0.1% formic acid in water and 0.1% formic acid in acetonitrile, flow rate of 0.5 mL/min) were used. The system was used in multiple reaction monitoring (MRM) mode with positive ion detection.

The mark [3] stands for this setting: Table 2, comparison with comparative compounds.
Where [4] appears, read: human Factor XIa 0.1 U/mL, 300 μM S-2366, pH7.4.

Human Factor XIa, sequence (P03951 388-625): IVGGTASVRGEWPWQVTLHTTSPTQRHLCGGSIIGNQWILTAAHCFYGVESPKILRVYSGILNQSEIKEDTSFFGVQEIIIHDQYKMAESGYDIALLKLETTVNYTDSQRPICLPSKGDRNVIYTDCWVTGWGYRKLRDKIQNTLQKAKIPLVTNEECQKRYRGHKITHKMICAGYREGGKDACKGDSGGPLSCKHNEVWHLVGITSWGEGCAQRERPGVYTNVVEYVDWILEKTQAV
Human Factor XIa, sequence (P03951 19-387 partner): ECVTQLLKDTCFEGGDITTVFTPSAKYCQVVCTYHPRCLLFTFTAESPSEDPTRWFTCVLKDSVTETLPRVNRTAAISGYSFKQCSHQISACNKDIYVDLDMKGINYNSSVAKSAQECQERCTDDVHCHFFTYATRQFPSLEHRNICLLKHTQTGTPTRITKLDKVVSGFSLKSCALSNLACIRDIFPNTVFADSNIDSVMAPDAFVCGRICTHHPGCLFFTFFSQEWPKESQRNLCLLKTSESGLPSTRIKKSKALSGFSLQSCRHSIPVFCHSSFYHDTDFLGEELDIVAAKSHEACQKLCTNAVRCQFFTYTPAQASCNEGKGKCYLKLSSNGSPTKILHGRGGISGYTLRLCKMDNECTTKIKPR

Regarding `COC(=O)Nc1ccc(-c2[nH]c(Cn3ccc(-c4cc(Cl)ccc4-n4cnnn4)cc3=O)nc2Cl)cc1` [Example 57, methyl{4-[5-chloro-2-({4-[5-chloro-2-(1H-tetrazol-1-yl)phenyl]-2-oxo-1(2H)-pyridinyl}methyl)-1H-imidazol-4-yl]phenyl}carbamate], the IC50 at Human Factor XIa (setting [3]) and at Human Factor XIa (setting [4]) was 2.4 nM throughout. The Cmax in data set [1] turned out to be 510 nM. Take `O=C(O)c1scc(-c2cnc([C@@H]3CCc4cc(-c5cc(Cl)ccc5-n5cnnn5)cc(=O)n43)[nH]2)c1F` [Example 834, 4-(2-{(3S)-7-[5-chloro-2-(1H-tetrazol-1-yl)phenyl]-5-oxo-1,2,3,5-tetrahydro-3-indolizinyl}-1H-imidazol-5-yl)-3-fluoro-2-thiophenecarboxylic acid]: at Human Factor XIa (setting [4]), the IC50 turned out to be 1.6 nM. As to `Cc1cc(-c2cc(Cl)ccc2-n2cnnn2)cc(=O)n1Cc1ncc(-c2csc(C(=O)O)c2)[nH]1` [Example 400, 4-[2-({4-[5-chloro-2-(1H-tetrazol-1-yl)phenyl]-6-methyl-2-oxo-1(2H)-pyridinyl}methyl)-1H-imidazol-5-yl]-2-thiophenecarboxylic acid hydrochloride], on Human Factor XIa (setting [4]), the IC50 was determined as 13 nM.

Turning to `COC(=O)Nc1ccc(-c2nnc(C3CCc4cc(-c5cc(Cl)ccc5-n5cnnn5)cc(=O)n43)[nH]2)cc1` (centres unmarked) [Example 245, methyl[4-(5-{7-[5-chloro-2-(1H-tetrazol-1-yl)phenyl]-5-oxo-1,2,3,5-tetrahydro-3-indolizinyl}-4H-1,2,4-triazol-3-yl)phenyl]carbamate], the IC50 on Human Factor XIa (setting [4]) amounted to 17 nM.

Regarding `Nc1ccc(-c2[nH]c([C@@H]3CCc4cc(-c5cc(Cl)ccc5-n5cnnn5)cc(=O)n43)nc2Cl)cn1` [Example 198, (3S)-3-[5-(6-amino-3-pyridinyl)-4-chloro-1H-imidazol-2-yl]-7-[5-chloro-2-(1H-tetrazol-1-yl)phenyl]-2,3-dihydro-5(1H)-indolizinone], the IC50 at Human Factor XIa (setting [4]) came out at 1.5 nM.

Regarding `COC(=O)Nc1ccc(-c2cnc([C@@H]3CCc4cc(-c5cc(C)ccc5-n5cnnn5)cc(=O)n43)[nH]2)cc1` [Example 309, methyl[4-(2-{(3S)-7-[5-methyl-2-(1H-tetrazol-1-yl)phenyl]-5-oxo-1,2,3,5-tetrahydro-3-indolizinyl}-1H-imidazol-5-yl)phenyl]carbamate], at Human Factor XIa (setting [4]), the IC50 was 8.3 nM. As to `COC(=O)Nc1ccc(-c2cnc(C3CCc4nc(-c5cc(Cl)ccc5-n5cnnn5)cc(=O)n43)[nH]2)cc1` (centres unmarked) [Example 41, methyl[4-(2-{2-[5-chloro-2-(1H-tetrazol-1-yl)phenyl]-4-oxo-4,6,7,8-tetrahydropyrrolo[1,2-a]pyrimidin-6-yl}-1H-imidazol-5-yl)phenyl]carbamate], the IC50 on Human Factor XIa (setting [3]) and at Human Factor XIa (setting [4]) was 6.5 nM in each case. Also, in data set [1], the Cmax amounted to 2280 nM.

Turning to `CCC(c1nc(-c2ccc(NC(=O)OC)cc2)c(Cl)[nH]1)n1ccc(-c2cc(Cl)ccc2-n2cnnn2)cc1=O` (centres unmarked) [Example 60, methyl{4-[5-chloro-2-(1-{4-[5-chloro-2-(1H-tetrazol-1-yl)phenyl]-2-oxo-1(2H)-pyridinyl}propyl)-1H-imidazol-4-yl]phenyl}carbamate], at Human Factor XIa (setting [4]), the IC50 is 7.2 nM.

Regarding `COC(=O)Nc1ccc(-c2cnc(C3CCc4cc(-c5cc(Cl)ccc5-n5cnnn5)cc(=O)n43)[nH]2)s1` (centres unmarked) [Example 181, methyl[5-(2-{7-[5-chloro-2-(1H-tetrazol-1-yl)phenyl]-5-oxo-1,2,3,5-tetrahydro-3-indolizinyl}-1H-imidazol-5-yl)-2-thienyl]carbamate], the half-inhibitory concentration (IC50) on Human Factor XIa (setting [4]) was 47 nM.

Regarding `COC(=O)Nc1ccc(-c2[nH]c(CNC(=O)/C=C/c3cc(Cl)ccc3-n3cnnn3)nc2Cl)cc1` [Comp Ex 3, reference compound], the Cmax in data set [1] was determined as 88 nM. As for `COC(=O)Nc1ccc(-c2[nH]c(C3CCc4cc(-c5cc(Cl)ccc5-n5cnnn5)cc(=O)n43)nc2Cl)cc1` (centres unmarked) [Example 45, methyl[4-(4-chloro-2-{7-[5-chloro-2-(1H-tetrazol-1-yl)phenyl]-5-oxo-1,2,3,5-tetrahydro-3-indolizinyl}-1H-imidazol-5-yl)phenyl]carbamate], the IC50 on Human Factor XIa (setting [3]) and on Human Factor XIa (setting [4]) was 15 nM throughout. In addition, the Cmax in data set [1] amounted to 1250 nM. As for `COC(=O)Nc1ccc(-c2[nH]c([C@H](Cc3ccccc3)NC(=O)CCc3cc(Cl)ccc3-n3cnnn3)nc2Cl)cc1` [Comp Ex 1, reference compound], the IC50 at Human Factor XIa (setting [3]) turned out to be 3.6 nM. Further, the Cmax in data set [1] came to 15 nM.

Regarding `CCOC(=O)c1ccc(-c2cnc([C@@H]3CCc4cc(-c5cc(Cl)ccc5-n5cnnn5)cc(=O)n43)[nH]2)s1` [Example 401, ethyl 5-(2-{(3S)-7-[5-chloro-2-(1H-tetrazol-1-yl)phenyl]-5-oxo-1,2,3,5-tetrahydro-3-indolizinyl}-1H-imidazol-5-yl)-2-thiophenecarboxylate], the Cmax in data set [2] was found to be 960 nM.

Consider `COC(=O)Nc1ccc(-c2cnc(C(C)n3ccc(-c4cc(Cl)ccc4-n4cnnn4)cc3=O)[nH]2)cc1` (centres unmarked) [Example 61, methyl{4-[2-(1-{4-[5-chloro-2-(1H-tetrazol-1-yl)phenyl]-2-oxo-1(2H)-pyridinyl}ethyl)-1H-imidazol-5-yl]phenyl}carbamate], for which the IC50 on Human Factor XIa (setting [4]) came to 14 nM. As for `Nc1ccc(-c2cnc([C@@H]3CCc4cc(-c5cc(Cl)ccc5-n5cnnn5)cc(=O)n43)[nH]2)c(Cl)n1` [Example 210, (3S)-3-[5-(6-amino-2-chloro-3-pyridinyl)-1H-imidazol-2-yl]-7-[5-chloro-2-(1H-tetrazol-1-yl)phenyl]-2,3-dihydro-5(1H)-indolizinone], at Human Factor XIa (setting [4]), the IC50 came out at 2.8 nM. Still for that read-out and setting: the figure for `Nc1ccc(-c2cnc([C@@H]3CCc4cc(-c5cc(Cl)ccc5-n5cnnn5)cc(=O)n43)[nH]2)c(F)n1` [Example 216, (3S)-3-[5-(6-amino-2-fluoro-3-pyridinyl)-1H-imidazol-2-yl]-7-[5-chloro-2-(1H-tetrazol-1-yl)phenyl]-2,3-dihydro-5(1H)-indolizinone] is 3.8 nM. For `COC(=O)Nc1ccc(-c2[nH]c([C@H](C)NC(=O)/C=C/c3cc(Cl)ccc3-n3cnnn3)nc2Cl)cc1` [Comp Ex 2, reference compound], the Cmax in data set [1] worked out at 25 nM. Regarding `O=C(O)c1cc(-c2cnc([C@@H]3CCc4nc(-c5cc(Cl)ccc5-n5cnnn5)cc(=O)n43)[nH]2)cs1` [Example 392, 4-(2-{(6S)-2-[5-chloro-2-(1H-tetrazol-1-yl)phenyl]-4-oxo-4,6,7,8-tetrahydropyrrolo[1,2-a]pyrimidin-6-yl}-1H-imidazol-5-yl)-2-thiophenecarboxylic acid hydrochloride], the IC50 on Human Factor XIa (setting [4]) worked out at 2.1 nM. With `COC(=O)Nc1ccc(-c2cnc(C(Cc3cccnc3)n3ccc(-c4cc(Cl)ccc4-n4cnnn4)cc3=O)[nH]2)cc1` (centres unmarked) [Example 278, methyl(4-{2-[1-{4-[5-chloro-2-(1H-tetrazol-1-yl)phenyl]-2-oxo-1(2H)-pyridinyl}-2-(3-pyridinyl)ethyl]-1H-imidazol-5-yl}phenyl)carbamate], the IC50 on Human Factor XIa (setting [4]) was found to be 5.7 nM. For `O=C(O)c1ccc(-c2cnc([C@@H]3CCc4cc(-c5cc(Cl)ccc5-n5cnnn5)cc(=O)n43)[nH]2)s1` [Example 347, 5-(2-{(3S)-7-[5-chloro-2-(1H-tetrazol-1-yl)phenyl]-5-oxo-1,2,3,5-tetrahydro-3-indolizinyl}-1H-imidazol-5-yl)-2-thiophenecarboxylic acid], on Human Factor XIa (setting [4]), the IC50 is 4.2 nM.

Take `O=C(O)c1cc(-c2cnc([C@@H]3CCc4cc(-c5cc(Cl)ccc5-n5cnnn5)cc(=O)n43)[nH]2)cs1` [Example 363, 4-(2-{(3S)-7-[5-chloro-2-(1H-tetrazol-1-yl)phenyl]-5-oxo-1,2,3,5-tetrahydro-3-indolizinyl}-1H-imidazol-5-yl)-2-thiophenecarboxylic acid hydrochloride]: at Human Factor XIa (setting [4]), the IC50 is 1.4 nM. Consider `O=C(O)c1ccc(-c2[nH]c([C@@H]3CCc4cc(-c5cc(Cl)ccc5-n5cnnn5)cc(=O)n43)nc2F)s1` [Example 399, 5-(2-{(3S)-7-[5-chloro-2-(1H-tetrazol-1-yl)phenyl]-5-oxo-1,2,3,5-tetrahydro-3-indolizinyl}-4-fluoro-1H-imidazol-5-yl)-2-thiophenecarboxylic acid trifluoroacetate], for which the IC50 on Human Factor XIa (setting [4]) amounted to 1.1 nM.
